The values that follow come from US20260174677A1, “METHODS OF TREATING INSULIN RESISTANCE AND ASSOCIATED DISORDERS” (The University of Melboune, priority 2022, published 2026).

This assay deals with CSPG-ECM. Nature of the assay: I.C.V. fluorosamine in obese mice: WFA immunostaining of CSPG-ECM in brain areas. It counts as in vivo, mouse. The procedure:
For detection of aggrecan, GFP, HABP, parvalbumin, mCherry, versican, tenascin-C, HAPLN1, neurocan, phosphacan, brevican, WFA and WFA-FITC sections were incubated at room temperature for 1 h in blocking buffer (0.3% Triton X-100, 5% normal goat serum, Gibco, ThermoFisher, MA, 0.02% sodium azide) and then overnight at 4° C. in 1% blocking buffer containing either rabbit anti-aggrecan (1:1000, AB1031, Millipore, MA), chicken anti-GFP (1:2000; ab13970, Abcam, Cambridge, UK), Biotinylated HABP (1:100, 385911, Burlington, MA), sheep anti-parvalbumin (1:1000), in house), rabbit anti-dsRed (1:2000, 600-401-379, Rockland, PA), rabbit anti-versican (1:1000, AB1033, Millipore, MA), tenascin-C (1:500, M1-B4, Developmental Studies Hybridoma Bank, Iowa), HAPLN1 (1:500, 9/30/8-A-4, Developmental Studies Hybridoma Bank, Iowa), neurocan (1:300, 1F6-S, Developmental Studies Hybridoma Bank, Iowa), phophacan (1:300, 3F8, Developmental Studies Hybridoma Bank, Iowa), brevican (1:500, 610895, BD Transduction Laboratories), biotinylated WFA (1:2000, L1516; Sigma-Aldrich, MO), WFA-FITC (1:2000, FL-1351-2, Vector Laboratories, CA), rabbit anti PGP9.5 (1:1000, 14730-1-AP, Proteintech, IL), guinea pig anti AgRP (1:500, AS506, Antibodies Australia, Melbourne, AUS). […]
All image quantification was performed in Image J (NIH) software (NIH, MA). […] To quantify area and intensity of the CSPG-ECM within each brain region (ARC, VMH or RSG cortex) images were thresholded and binarized to create a region of interest (ROI) mask of only the CSPG-ECM. For each brain area, CSPG-ECM ROI area (μm^2) and intensity (sum of all pixel intensities within the ROI) was calculated. […]

“Also recorded” adds a separate entry of the source.

As for `CC(=O)NC1C(OC(C)=O)OC(COC(C)=O)[C@@H](F)C1OC(C)=O` (stereo partly drawn) [fluorosamine, per-O-acetylated-4-F-N-acetylglucosamine], for the setting “I.C.V. daily for 10 days”, the “CSPG-ECM in other brain areas such as the RSG cortex” value is listed as “did not reduce CSPG-ECM” and the “neurofibrosis (CSPG-ECM, WFA immunostaining) within the ARC” value is on record as “significantly attenuated neurofibrosis within the ARC; also recorded: preferentially attenuates CSPG-ECM in the ARC”. The “CSPG-ECM expression in the habenula” value (I.C.V., highest dose) is on record as “only partially attenuated expression”.
